Measurements: patent US20240238238A1, “Isotopically Modified Composition and Therapeutic Uses Thereof” (BioJiva LLC, priority 2018, published 2024)
Blank lines part the entries; values can stand above or below the compound they belong to.

Legend:
[1] = Plasma PK by LC-MS (D2-LA, LA, D2-AA) in the phase I/II trial
Method: (§1) PK samples were obtained predose and at 0.5, 1, 1.5, 2, 4, 6, 8, 12, 16, and 24 hours following the first dose and 14, 28, 29, 30, and 31 days following enrollment. The samples taken on Days 29-31 represent Isotopically modified polyunsaturated fatty acid, ester, thioester, amide, or other prodrug thereof (e.g., 11,11,D2-linoleic acid ethyl ester) washout levels. D2-LA, linoleic acid (LA), deuterated arachidonic acid (D2-AA), and arachidonic acid (ARA) concentrations were measured in the samples.
(§2) Plasma concentrations of 11,11-D2-linoleic acid ethyl ester (combined free acid form and ester form) and non-deuterated analogs were determined by liquid chromatography and mass spectrometry (LCMS). Blood was collected in K2EDTA anticoagulant tubes, centrifuged to obtain plasma and red blood cells (RBCs), and frozen until analyzed. The samples were hydrolyzed to free fatty acids and analyzed by high performance LC-MS by Good Laboratory Practice validated methods. Low-intensity D2 and high-intensity H2 signals were measured with high accuracy at Ricerca Biosciences, using an AB SCIEX 6500 tandem-quadrupole MS. The 13C2 isotopomer signal was used as a calibration standard for 11,11,D2-linoleic acid ethyl ester; a polydeuterated internal standard was utilized. The enzymatic elongation/desaturation metabolite, 13,13-D2-arachidonic acid (D2-AA), was also measured, in plasma and red blood cells (RBCs).

[2] = tested on: Friedreich's ataxia patients; assay: Phase I/II double blind, comparator-controlled trial: safety and tolerability; type: in vivo, human; settings: for Safety and tolerability: oral, 1.8 or 9.0 g/day, FRDA patients
Method: A phase I/II double blind, comparator-controlled trial with 2 doses of 11,11-D2-linoleic acid ethyl ester in Friedreich's ataxia patients (9 subjects in each cohort) was conducted. Subjects were randomized 2:1 to receive either 11,11-D2-linoleic acid ethyl ester (1.8 or 9.0 g/day), or a matching dose of non-deuterated ethyl linoleate as comparator for 28 days.
(§3) The primary study objectives were to evaluate the safety and tolerability of orally administered 11,11-D2-linoleic acid ethyl ester. Additional study objectives included identifying the PK of 11,11-D2-linoleic acid ethyl ester following single and multiple oral dose administration and establishing an optimum dose of 11,11-D2-linoleic acid ethyl ester. Additional clinical testing consisted of the Friedreich's Ataxia Rating Scale (FARS)-Neurological point (FARS-Neuro), the timed 25-foot walk (T25FW) with an electronic sensor to measure multiaxis components of motion during the study, and cardiopulmonary exercise testing (CPET). The CPET was performed on an electronically braked cycle ergometer (Lode Corival, Groningen, The Netherlands). The protocol included: 5 minutes of rest; 3 minutes of an unloaded cycling warm-up; a progressive protocol with increased workload each minute (5-25 watts based on estimated functional capacity); 2 minutes of an unloaded cycling recovery; and 10 minutes of passive recovery. Heart rate (HR), blood pressure (BP), ratings of perceived exertion (RPE), pulse oximetry, and expired gases were monitored in accord with standard exercise testing guidelines. Scc Pescatello et al., Thompson P. ACSM's Guidelines for Exercise Testing and Prescription. Baltimore, MD: Wolters Kluwer; 2014:114-141. Heart rate was measured by electrocardiogra (Pulse Biomedical, King of Prussia, PA), BP was determined by auscultation, RPE was estimated using the standard 6 to 20 scale, and expired gases were collected through a silicone rubber mask (Hans Rudolph, Shawnee, KS) and analyzed continuously using a metabolic cart (Parvomedics, AQ5 Sandy, UT) Vacumetrics (Ventura, CA). Endpoints of interest were peak oxygen consumption (VO2 peak) and peak workload. All other variables were primarily assessed to monitor patient safety and progress during the exercise trial.
The study included male or female participants, aged 18 to 50 years, with a FRDA onset at equal or less than 25 years of age, homozygosity for GAA repeat expansions in FXN, and FARS-Neuro range of 20 to 90 points. Participants were ambulatory (with or without assistive device), capable of performing other assessments/evaluations, with a body mass index (BMI) equal or less than 34 kg/m^2. Subjects were agreeable to dietary restriction coaching from a diet counselor to lower PUFA dietary intake, for maximal incorporation of 11,11-D2-linoleic acid ethyl ester. Sample size was selected to ensure 12 fully evaluable patients for active treatment and 6 patients for the comparator treatment. It was not powered, but considered adequate for a first-in-human trial of 11,11-D2-linoleic acid ethyl ester.
A randomization schedule was generated before the first dosing period by Agility Clinical, Inc. (Carlsbad, CA) that followed their established standard operating procedures regarding generation, security, and distribution of the randomization scheme. Patients who provided informed consent and met all enrollment criteria were randomized into the study. In order to randomize a patient, the site contacted the unblinded statistician at Agility, Inc to identify which kit should be provided to the patient.
Patients were randomly assigned to receive one of two treatments (11,11,D2-linoleic acid ethyl ester or comparator) following a 2:1 ratio, respectively. The study sponsor, investigators, research pharmacy, and patients were blinded to the subject's treatment. […]

[3] = tested on: Friedreich's ataxia patients; assay: Cardiopulmonary exercise testing (CPET): peak workload, VO2max; type: in vivo, human; settings: for Median change from baseline in peak oxygen consumption (VO2max): baseline to day 28, P=0.116
Text: as §3
Four protocol-defined outcomes (peak workload, VO2max, FARS-Neuro, and T25FW) were examined to explore for possible endpoints for future studies in FRDA. Nonparametric statistics were used to compare the results of those receiving 11,11-D2-linoleic acid ethyl ester to comparator. A modified intention-to-treat (mITT) population was used for the VO2max and peak workload testing analysis because 2 subjects were unable to complete the exercise test. One subject was unable to establish required pedal cadence, and the test was terminated at the conclusion of the warm-up at baseline and day 27 and 1 subject had to stop the day 27 testing because the subject's knees were hitting together and the subject was unable to maintain the RPM. […] After Bonferroni adjustment for testing the four outcomes, the change in peak workload between study drug and comparator remained significant (P=0.032). This Bonferroni adjustment is standard in early-stage trials to analyze both prospective or post-hoc data from multiple exploratory efficacy endpoints in order, to determine the most suitable primary endpoint for subsequent pivotal trials.

[4] = Red blood cell (RBC) concentrations by LC-MS in the phase I/II trial; type: in vivo, human
Method: as §1, §2
The ability of 11,11-D2-linoleic acid ethyl ester to enter the cellular membrane compartment was assessed by measuring 11,11-D2-linoleic acid ethyl ester and LA concentration in RBCs during the 28-day period.

[5] = tested on: Friedreich's ataxia patients; assay: Friedreich's Ataxia Rating Scale-Neurological (FARS-Neuro); type: in vivo, human
Text: as §3, with “The protocol included: 5 minutes of rest; 3 minutes of an unloaded cycling warm-up; a progressive protocol with increased workload each minute (5-25 watts based on estimated functional capacity); 2 minutes of an unloaded cycling recovery; and 10 minutes of passive recovery.” left out, “Scc Pescatello et al., Thompson P. ACSM's Guidelines for Exercise Testing and Prescription. Baltimore, MD: Wolters Kluwer; 2014:114-141.” left out, “Endpoints of interest were peak oxygen consumption (VO2 peak) and peak workload.” left out, “trial. […]” for “trial.”

[6] = tested on: Friedreich's ataxia patients; assay: Timed 25-foot walk (T25FW) with electronic motion sensor or stopwatch; type: in vivo, human
Text: as §3, with “The protocol included: 5 minutes of rest; 3 minutes of an unloaded cycling warm-up; a progressive protocol with increased workload each minute (5-25 watts based on estimated functional capacity); 2 minutes of an unloaded cycling recovery; and 10 minutes of passive recovery.” left out, “Scc Pescatello et al., Thompson P. ACSM's Guidelines for Exercise Testing and Prescription. Baltimore, MD: Wolters Kluwer; 2014:114-141.” left out, “Endpoints of interest were peak oxygen consumption (VO2 peak) and peak workload.” left out, “trial. […]” for “trial.”

[7] = drug group, cohort 2 (4.5 g BID), 28 days

SMILES: [2H]C([2H])(/C=C\C/C=C\C/C=C\CCCC(=O)O)/C=C\CCCCC [D2-AA, 13,13-D2-arachidonic acid]
Mean plasma concentration of D2-AA ([1]; high dose (4.5 g BID), 72-hour period after the last dose (day 28)): around 22 μg/mL
Plasma concentration of D2-AA (metabolite) ([1]; high dose, predose baseline and day 1, LOQ 1 μg/mL): below or slightly above the LOQ
Plasma concentration of D2-AA (metabolite) ([1]; low dose 11,11-D2-linoleic acid ethyl ester, day 1): below quantitation
Mean plasma concentration of D2-AA, maximum at 32 hours after the last dose ([1]; low dose (1.8 g QD), after day 28): 5530 ng/mL
Mean plasma concentration of D2-AA, maximum at 6 hours after the last dose ([1]; low dose (1.8 g QD), day 28): 3860 ng/mL

SMILES: CCCCC/C=C\C/C=C\CCCCCCCC(=O)OCC [comparator, ethyl linoleate, reference compound]
Diarrhea (TEAE) ([2]; both, human, in vivo, 28 days): 1 subject
Median change from baseline in peak oxygen consumption (VO2max) [3]: -0.02 L/min

Increase of day 28 24-hour AUC when the daily dose was increased 5-fold ([1]; human, in vivo): approximately 4 fold
Time of maximum plasma D2-LA concentration ([1]; in vivo): 8 to 10 h
Time to steady state in the plasma and in RBCs ([1]; in vivo, po): ≤ 28 days
RBC concentration of D2-LA as percentage of total LA (D2-LA plus LA), mean ([4]; cohort 1): 6.52%
RBC concentration of D2-LA as percentage of total LA (D2-LA plus LA), mean ([4]; cohort 2): 25.8%
Mean RBC concentration of D2-LA ([4]; day 28, cohort 1 (1.8 g QD)): 14.6 ± 8.7 µg/mL
Mean RBC concentration of D2-LA ([4]; day 28, cohort 2 (4.5 g BID)): 26.1 ± 19.2 µg/mL
SMILES: [2H]C([2H])(/C=C\CCCCC)/C=C\CCCCCCCC(=O)OCC [11,11-D2-linoleic acid ethyl ester]
Diarrhea assessed as "possibly related to study drug" [2, 7]: 3 subjects
Diarrhea assessed as "probably related to study drug" [2, 7]: 1 subject
Subjects who discontinued the study because of steatorrhea ([2]; high-dose group (cohort 2), BMI 15.4, within the first week): One
Safety and tolerability ([2]; 28 days): safe and tolerable
Safety and tolerability ([2]; 28 days, listed as 11,11,D2-linoleic acid ethyl ester): well tolerated
Change in VO2max between drug and comparator ([3]; baseline to day 28): 17.5%
Median change from baseline in peak oxygen consumption (VO2max) [3]: 0.14 L/min
Change in peak workload in the drug group at study end-point ([3]; baseline to day 28, mITT): 25.7%
Improvement in peak workload from baseline to day 28 ([3]; study drug (n=10) versus comparator (n=6), mITT, P=0.008): 0.16 watts/kg
Median decrease in FARS-Neuro ([5]; baseline to day 28): 4.75 FARS points
Difference in FARS points decrease between drug and placebo groups ([5]; baseline to day 28, P=0.348 ITT): 1.95 FARS points
T25FW^−1 time, traditionally measured (by stopwatch) ([6]; P=0.88): no signal of significance
Improvement of stride speed (stride time)^−1 ([6]; electronic motion sensing device on the ankle, 25-foot timed walk, P=0.15 ITT): 7%
